Test results taken from PMC8263253, “Agonist and antagonist properties of an insect GABA-gated chloride channel (RDL) are influenced by heterologous expression conditions” (PLoS ONE, 2021).
Values joined by “and” are separate entries in the source; they are usually repeats but may differ in a detail not shown here. Equal entries are not always repeated.

Target: BtRDL (Bombus terrestris RDL GABA-gated chloride channel) (Bombus terrestris audax, UniProt A0A8F2J2P3)
Test: Two-electrode voltage-clamp recording of BtRDL expressed in Xenopus oocytes
Type: cell-based
Conditions: for IC50: IC50 for block of GABA responses

Sequence of BtRDL (Bombus terrestris RDL GABA-gated chloride channel) (A0A8F2J2P3 entry or part of it): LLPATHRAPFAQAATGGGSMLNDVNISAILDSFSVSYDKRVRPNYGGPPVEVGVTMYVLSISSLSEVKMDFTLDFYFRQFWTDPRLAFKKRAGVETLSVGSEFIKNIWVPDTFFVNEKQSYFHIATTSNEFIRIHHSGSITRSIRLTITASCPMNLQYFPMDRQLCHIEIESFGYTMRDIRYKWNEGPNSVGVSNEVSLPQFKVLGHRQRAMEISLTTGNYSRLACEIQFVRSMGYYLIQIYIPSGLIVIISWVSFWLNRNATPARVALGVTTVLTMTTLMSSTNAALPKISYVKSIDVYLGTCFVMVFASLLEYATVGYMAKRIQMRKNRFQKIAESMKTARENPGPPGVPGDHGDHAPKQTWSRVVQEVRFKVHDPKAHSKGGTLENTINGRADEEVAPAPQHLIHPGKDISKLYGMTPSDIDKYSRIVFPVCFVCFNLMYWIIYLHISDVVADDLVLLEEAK

C=C(C)[C@@H]1[C@H]2OC(=O)[C@@H]1[C@]1(O)C[C@H]3O[C@]34C(=O)O[C@H]2[C@]14C [picrotoxinin]
IC50 (BtRDL with high apparent affinity for GABA (10 ng cRNA, pGEMHE NheI, three-days), EC50 concentration of GABA 1 μM): 14 ± 1.6 µM | IC50 (BtRDL with low apparent affinity for GABA (1 ng cRNA, pGEMHE XbaI, three-days), EC50 concentration of GABA 30 μM): 1.7 ± 0.3 µM

NCCCC(=O)O [GABA, γ-aminobutyric acid]
maximum current (Imax) to GABA (1 ng BtRDL cRNA lacking 3'UTR, 1–3 days post-injection): 0.67 ± 0.04 μA | maximum current (Imax) to GABA (BtRDL 1 ng cRNA (+3'UTR) co-expressed with DmNACHO): 3.4 ± 0.6 μA | EC50 (GABA EC50, pGEMHE-BtRDL digested with NheI (3'UTR retained), 1 ng cRNA, three-days post-injection): 4 ± 1.1 µM | EC50 (GABA EC50, pGEMHE-BtRDL digested with XbaI (3'UTR removed), 1 ng cRNA, three-days post-injection): 27.6 ± 1.6 µM | EC50 (GABA EC50, pSP64GL-BtRDL cRNA containing 3'UTR, 1 ng, BtRDL expressed alone, three-days post-injection): 3.7 ± 0.4 µM | EC50 (GABA EC50, pSP64GL-BtRDL cRNA lacking 3'UTR, 1 ng, three-days post-injection): 31.4 ± 2.1 µM | EC50 (GABA apparent affinity EC50, BtRDL 1 ng cRNA (+3'UTR) + 10 ng cRNA CeRIC-3, Day 1): 10.6 ± 1.1 µM | EC50 (GABA apparent affinity EC50, BtRDL 1 ng cRNA (+3'UTR) + 10 ng cRNA CeRIC-3, Day 2): 5 ± 0.9 µM | EC50 (GABA apparent affinity EC50, BtRDL 1 ng cRNA (+3'UTR) + 10 ng cRNA CeRIC-3, Day 3): 4.2 ± 1 µM | EC50 (GABA apparent affinity EC50, BtRDL 1 ng cRNA (+3'UTR) + 10 ng cRNA DmNACHO, Day 1): 21 ± 1.1 µM | EC50 (GABA apparent affinity EC50, BtRDL 1 ng cRNA (+3'UTR) + 10 ng cRNA DmNACHO, Day 2): 14.8 ± 1.1 µM | EC50 (GABA apparent affinity EC50, BtRDL (+3'UTR), 1 ng cRNA, Day 2 post-injection): 4.4 ± 0.7 µM | EC50 (GABA apparent affinity EC50, BtRDL (+3'UTR), 1 ng cRNA, Day 3 post-injection): 3.9 ± 0.6 µM | EC50 (GABA apparent affinity EC50, BtRDL (+3'UTR), 10 ng cRNA, Day 1 post-injection): 10.8 ± 1.2 µM | EC50 (GABA apparent affinity EC50, BtRDL (+3'UTR), 10 ng cRNA, Day 2 post-injection): 2 ± 0.7 µM | EC50 (GABA apparent affinity EC50, BtRDL (+3'UTR), 10 ng cRNA, Day 3 post-injection): 1.8 ± 0.4 µM | EC50 (GABA apparent affinity EC50, BtRDL (-3'UTR), 1 ng cRNA, Day 1 post-injection): 29.7 ± 1.1 µM | EC50 (GABA apparent affinity EC50, BtRDL (-3'UTR), 1 ng cRNA, Day 2 post-injection): 28.3 ± 1.1 µM | EC50 (GABA apparent affinity EC50, BtRDL (-3'UTR), 1 ng cRNA, Day 3 post-injection): 29.4 ± 1 µM | EC50 (GABA apparent affinity EC50, BtRDL (-3'UTR), 10 ng cRNA, Day 1 post-injection): 27.3 ± 1.1 µM | EC50 (GABA apparent affinity EC50, BtRDL (-3'UTR), 10 ng cRNA, Day 2 post-injection): 10.8 ± 1 µM | EC50 (GABA apparent affinity EC50, BtRDL (-3'UTR), 10 ng cRNA, Day 3 post-injection): 12.5 ± 1 µM | EC50 (GABA apparent affinity EC50, BtRDL alone, 1 ng cRNA (+3'UTR), Day 2): 4.6 ± 0.9 µM | EC50 (apparent affinity for GABA, BtRDL populations with intermediate apparent affinities (summary in discussion)): ~4 µM and ~12 µM | EC50 (apparent affinity for GABA, BtRDL receptors with high apparent affinity (summary in discussion)): ~30 µM | EC50 (apparent affinity for GABA, BtRDL receptors with low apparent affinity (summary in discussion)): ~2 µM

CC(C)c1cccc(C(C)C)c1O [Propofol, propofol]
EC50 (propofol apparent affinity (agonist activation), BtRDL with high apparent affinity for GABA (10 ng cRNA +3'UTR, three-days)): 82.9 ± 6.4 µM | EC50 (propofol apparent affinity (agonist activation), BtRDL with low apparent affinity for GABA (1 ng cRNA +3'UTR, one-day)): 198 ± 19.1 µM
